Consider nine compounds from patent publication US6566375B1, “Elevation of HDL cholesterol by 4-[(aminothioxomethyl)-hydrazono]-N-(substituted)-4-arylbutanamides” (Wyeth, priority 1997, dated 2003).

One data set has as its system HDL cholesterol. The experiment in a line: Cholesterol fed rat, in vivo assay of serum HDL cholesterol. The settings on record: test substance mixed in diet for 8 days, serum HDL cholesterol by FPLC. Set-up: species or system Male Sprague-Dawley rats. Here is the method: The compounds are tested in vivo in rats fed cholesterol-augmented rodent chow for 8 days according to the test protocol and blood from the rats analyzed for HDL cholesterol.
In Vivo Assa.: Male Sprague-Dawley rats weighing 200-225 g are housed two per cage and fed Purina Rodent Chow Special Mix 5001-S supplemented with 0.25% cholic acid and 1.0% cholesterol and water ad libitum for 8 days. Each test substance is administered to a group of six rats fed the same diet with the test diet mixed in as 0.005-0.1% of the total diet. Body weight and food consumption are recorded prior to diet administration and at termination. Typical doses of the test substances are 5-100 mg/kg/day.
At termination, blood is collected from anesthetized rats and the serum is separated by centrifugation. Total serum cholesterol is assayed using the Sigma Diagnostics enzymatic kit for the determination of cholesterol, Procedure No. 352, modified for use with ninety-six well microtiter plates. After reconstitution with water the reagent contains 300 U/I cholesterol oxidase, 100 U/I horse radish peroxidase, 0.3 mmoles/l of 4-aminoantipyrine and 30.0 mmoles/l of p-hydroxybenzenesulfonate in a pH 6.5 buffer. In the reaction cholesterol is ;oxidized to produce hydrogen peroxide which is used to form a quinoneimine dye. The concentration of dye formed is measured spectrophotometrically by absorbance at 490 nm after incubation at 25° C. for 30 minutes. The concentration of cholesterol was determined for each serum sample relative to a commercial standard from Sigma.
HDL cholesterol concentrations in serum are determined by separation of lipoprotein classes by fast protein liquid chromatography (FPLC) by a modification of the method of Kieft et al., J. Lipid Res., 32 (1991) 859-866. 25 μl of serum is injected onto Superose 12 and Superose 6 (Pharmacia), in series, with a column buffer of 0.05 M Tris (2-amino-2-hydroxymethyl-1,3-propanediol) and 0.15 M sodium chloride at a flow rate of 0.5 ml/min. The eluted sample is mixed on line with Boehringer-Mannheim cholesterol reagent pumped at 0.2 ml/min. The combined eluents are mixed and incubated on line through a knitted coil (Applied Biosciences) maintained at a temperature of 45° C. The eluent is monitored by measuring absorbance at 490 nm and gives a continuous absorbance signal proportional to the cholesterol concentration. The relative concentration of each lipoprotein class is calculated as the per cent of total absorbance. HDL cholesterol concentration, in serum, is calculated as the per cent of total cholesterol as determined by FPLC multiplied by the total serum cholesterol concentration.

`CCCCNC(=O)CCC(=NNC(N)=S)c1ccccc1` [Example 1, 2-(4-Butylamino-4-oxo-1-phenyl-butylidene)-hydrazinothiocarboxamide] registered a melting point of 64 to 68 °C. In addition, the “% Increase in HDL (Dose)” value with HDL cholesterol (100 mg/kg) is 56%.

In the case of `CC(C)NC(=O)CCC(=NNC(N)=S)c1ccccc1` [Example 2, 4-[(Aminothioxomethyl)hydrazono]-N-(1-methylethyl)-4-phenyl-butanamide], the melting point fell in the range of 66 to 71 °C. The “% Increase in HDL (Dose)” value with HDL cholesterol (100 mg/kg) was 61.7%.

`NC(=O)CCC(=NNC(N)=S)c1ccccc1` [Example 3, 4-[(Aminothioxomethyl)-hydrazono]-4-phenylbutanamide]: the melting point fell in the range of 186 to 188 °C. In addition, the “% Increase in HDL (Dose)” value in the data set on HDL cholesterol (50 mg/kg) is listed as 36.4%.

For `NC(=S)NN=C(CCC(=O)NCc1ccccc1)c1ccccc1` [Example 4, 4-[(Aminothioxomtethyl)-hydrazono]-N-benzyl-4-phenylbutanamide], the “% Increase in HDL (Dose)” value in the data set with HDL cholesterol (50 mg/kg) turned out to be 49.5%.

For `CNC(=O)CCC(=NNC(N)=S)c1ccccc1` [Example 5, 4-[(Aminothioxomrethyl)-hydrazono]-N-methyl-4-phenylbutanamide], in the data set on HDL cholesterol (100 mg/kg), the “% Increase in HDL (Dose)” value is on record as 43.3%.

In the case of `NC(=S)NN=C(CCC(=O)NC1CCCCC1)c1ccccc1` [Example 6, 4-[(Aminothioxomethyl)-hydrazono]-N-cyclohexyl-4-phenylbutanamide], the melting point was in the range of 89 to 92 °C. In the data set on HDL cholesterol (82 mg/kg), the “% Increase in HDL (Dose)” value is on record as 28.1%.

Take `CN(C)C(=O)CCC(=NNC(N)=S)c1ccccc1` [Example 7, 4-[(Aminothioxomethyl)hydrazono]-N,N-dimethyl-4-phenylbutanamide]: the melting point was in the range of 173 to 175 °C. Further, in the data set on HDL cholesterol (50 mg/kg), the “% Increase in HDL (Dose)” value is listed as 56.2%.

Consider `NC(=S)NN=C(CCC(=O)N1CCCCC1)c1ccccc1` [Example 8, 1-[4-[(Aminothioxomethyl)hydrazono]-1-oxo-4-phenylbutyl]piperidine], for which the melting point was 181 to 183 °C. Also, the “% Increase in HDL (Dose)” value with HDL cholesterol (50 mg/kg) is 52.8%.

`CC(C)CCCC(C)NC(=O)CCC(=NNC(N)=S)c1ccccc1` (stereo not shown) [Example 9, 4-[(Aminothioxomethyl)-hydrazono]-N-(1,5-dimethylhexyl)-4-phenyl-butanamide]: the melting point was 58 to 65 °C. Also, in the data set on HDL cholesterol (50 mg/kg), the “% Increase in HDL (Dose)” value is 40.4%.
